Target: T1, HMG-CoA reductase (Rattus norvegicus, UniProt P51639)
T1 construct: the supernatant was ultracentrifuged (100,000×g for 60 minutes) to obtain microsomal precipitates; from tissue; host or cells: liver microsomes of treated rats
T1 sequence (P51639 1-887): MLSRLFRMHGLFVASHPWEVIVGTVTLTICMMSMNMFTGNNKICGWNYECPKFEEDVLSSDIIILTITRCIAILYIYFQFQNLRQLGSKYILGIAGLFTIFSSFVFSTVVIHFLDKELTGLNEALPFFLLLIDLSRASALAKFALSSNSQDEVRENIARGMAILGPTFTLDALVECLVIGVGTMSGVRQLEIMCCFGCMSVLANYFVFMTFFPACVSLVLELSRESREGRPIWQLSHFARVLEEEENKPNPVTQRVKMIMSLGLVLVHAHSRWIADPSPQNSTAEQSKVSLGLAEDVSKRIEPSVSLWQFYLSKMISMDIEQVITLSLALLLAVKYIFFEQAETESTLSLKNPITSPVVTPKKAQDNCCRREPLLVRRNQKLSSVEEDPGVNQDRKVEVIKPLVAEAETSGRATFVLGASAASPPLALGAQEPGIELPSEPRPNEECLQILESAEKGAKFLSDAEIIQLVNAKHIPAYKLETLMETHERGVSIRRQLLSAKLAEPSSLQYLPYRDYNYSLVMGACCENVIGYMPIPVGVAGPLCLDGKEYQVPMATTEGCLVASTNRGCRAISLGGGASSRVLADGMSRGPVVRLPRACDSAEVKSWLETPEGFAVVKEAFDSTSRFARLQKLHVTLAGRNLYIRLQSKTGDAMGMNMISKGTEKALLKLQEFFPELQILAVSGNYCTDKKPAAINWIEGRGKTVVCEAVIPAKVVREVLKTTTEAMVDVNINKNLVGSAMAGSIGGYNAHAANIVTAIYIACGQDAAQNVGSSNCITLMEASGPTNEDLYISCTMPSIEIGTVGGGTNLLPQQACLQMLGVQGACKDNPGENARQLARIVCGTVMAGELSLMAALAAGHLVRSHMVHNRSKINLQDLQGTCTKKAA
Assay: HMG-CoA reductase activity in liver microsomes of treated rats (Experimental Example 6, Step 4)
Type: in vivo
Design: HMG-CoA reductase: unit not given here
Settings: for HMG-CoA reductase: activity in liver microsomes of rats fed 6 weeks, CoA-SH by absorbance at 412 nm, average; for Inhibition of HMG-CoA reductase activity: liver microsomes of rats fed 6 weeks, relative to control group
Description: In order to measure the activity of HMG-CoA reductase, the method described by Hulcher et al. (J. Lipid Res., 14, 625-641 (1973)) was employed after some modification. In this method, the concentration of the coenzyme-A (CoA-SH), which is produced when HMG-CoA is reduced to a mevalonate salt by the action of HMG-CoA reductase, is determined by spectroscopy and the activity of HMG-CoA reductase is calculated therefrom.
3 g of liver tissue taken from each sacrificed rat of Step 2 was washed successively with 100 ml of a cold Saline (0.15M NaCl) and 100 ml of a cold buffer solution A (0.1M triethanolamine, HCl/0.2M EDTA/2 mM dithiothreitol). The cold buffer solution A was added to the liver tissue in an amount of 2 ml per 1 g of the liver tissue and the mixture was homogenized with a homogenizer. The homogenate was centrifuged (15,000×g for 15 minutes), and then, the supernatant was ultracentrifuged (100,000×g for 60 minutes) to obtain microsomal precipitates. The precipitates thus obtained were washed with 2 mL of a cold buffer solution A and ultracentrifuged (100,000×g for 60 minutes) to obtain precipitates. The precipitates thus obtained were washed with a 1 mL of cold buffer solution A and kept in a 1.5 mL tube at −70° C.
The reaction substrates used in the measurement of HMG-CoA reductase activity were as follows:
i) buffer solution B: 0.1M triethanolamine, HCl/0.02M EDTA (pH7.4),
ii) HMG-CoA solution: 150 mmoles/culture medium, and
iii) NADPH solution: 2 mmoles/culture medium.
The suspension (microsome) prepared in the above was mixed with the reaction substrate and the resulting mixture was placed in a centrifugation tube and reacted at 37° C. for 30 minutes. The reaction mixture was treated with 20 μl of 0.1M sodium arsenite and allowed to stand for 1 minute. Then, the mixture was reacted with 100 μl of citrate buffer solution (2M citrate/3% sodium tungstate, pH 3.5) at 37° C. for 10 minutes followed by centrifugation (25,000×g for 15 minutes) to remove protein. 1 mL of the supernatant thus obtained was transferred into a tube with a cap and 0.2 mL of 2M tris-HCl solution (pH 10.6) and 0.1 ml of 2M tris-HCl solution (pH 8.0) were added thereto to adjust the pH of the reaction to 8.0. Then, the reaction was mixed with 20 μl of DTNB buffer solution (3mM DTNB/0.1M triethanolamine/0.2M EDTA, pH 7.4) and the absorbance of the mixture was determined at 412 nm to calculate the amount of CoA-SH (activity of HMG-COA reductase). The inhibition of HMG-CoA reductase activity of the control and treated groups were calculated based on the above results.

HMG-CoA reductase	SMILES	Inhibition of HMG-CoA reductase activity [%]
196.11	COC(=O)C(CO)NC(=O)CCc1ccc(O)c(O)c1 (stereo not drawn) [BN30063, 2-[3-(3,4-dihydroxyphenyl)propionylamino]-3-hydroxy propionic acid methyl ester]	20.09
124.74	CC(C)CC(NC(=O)CCc1ccc(O)c(O)c1)C(=O)O (stereo not drawn) [BN30064, 2-[3-(3,4-dihydroxyphenyl)propionylamino]-4-methyl pentanoic acid]	–
136.15	O=C(O)CC(NC(=O)CCc1ccc(O)c(O)c1)C(=O)O (stereo not drawn) [BN30067, 2-[3-(3,4-dihydroxyphenyl)propionylamino]-succinic acid]	–

SMILES	HMG-CoA reductase	Inhibition of HMG-CoA reductase activity [%]
CC[C@H](C)C(=O)O[C@H]1C[C@@H](C)C=C2C=C[C@H](C)[C@H](CC[C@@H]3C[C@@H](O)CC(=O)O3)[C@H]21 [Lovastatin, reference compound]	173.25	29.40

From patent publication US7223793B2, “Phenolic acid derivatives and composition for preventing or treating blood lipid level-related diseases comprising the same” (Bionutrigen Co., Ltd., priority 2001, dated 2007)
